Reference: article PMC12302718, “Molecular basis for Gβγ-SNARE-mediated inhibition of synaptic vesicle fusion” (The Journal of Biological Chemistry, 2025)
One block for each substance: values may come before it. Where no end group is shown, it is not given here.

Legend:
SNAP25 = conditions: read-out: Potency in competing with full-length Gβ1γ2 for binding to SNAP25; peptide competition studies; cited from earlier work
Description: The importance of the N-terminal binding site is supported by the findings presented here as well as by previous findings, both in cell-based assays and in vitro binding studies ([10], [39]).

[1] = molecular target: fully zipped ternary SNARE mimetic; test: Microscale Thermophoresis (MST) affinity analysis, fully zipped SNARE; parameters: species or system rat; conditions: 250 nM fluorescently labeled (Red-Tris-NTA) Gβ1γ2, SNARE 0.56 nM−19.5 μM, n = 3 technical replicates, read-out: KD, binding to fully zipped SNARE
[2] = test system: partially zipped and fully zipped ternary SNARE mimetics; tSNARE; test: Peptide array / far-Western blot with ternary SNARE mimetics and tSNARE; type: binding, rat; conditions: 0.5 μM SNARE protein, far-Western probed for SNAP25
Description: Binding was quantified as a fraction of the densitometric signal of a positive control peptide corresponding to residues 48 to 62 of rat complexin-1, which interacts with the ternary SNARE complex in co-crystal structures ([41], [51], [52]).
Quantification of (A) Gβ1 and (B) Gγ2 peptides binding to the partially zipped (black striped bars) and fully zipped SNARE (gray bars). Densitometry measurements were normalized to a positive control peptide spot corresponding to a portion of the rat complexin-1 central helix (residues 48–62). Bar graphs represent the mean ± SD of three technical replicates. A, both SNARE mimetics interact with the N-terminal α-helix (H1, red), L1 (orange), B1 (yellow), and B2 (green) of Gβ1. […]
Peptide array synthesis was performed using the ResPep SL peptide synthesizer (Intavis AG) according to standard SPOT synthesis protocols ([44], [70]). […] Spots were detected using HRP-conjugated secondary antibodies as described by the manufacturer. For densitometric analysis comparing Gβ and Gγ isoforms, the signal in individual dots was quantified as a percentage of total density detected on the membrane (Quantity One and Image Lab, Bio Rad, and Image J [Schneider et al., 2012]). […] Quantification of Gβ1 and Gγ2 peptide spots binding to ternary SNARE mimetics was performed by normalizing within each blot to a positive control corresponding to residues 48 to 62 of complexin-1. […]

Gβ1γ2/SNAP25 interaction = molecular target: T1, Gβ1γ2/SNAP25 interaction (Homo sapiens, UniProt P60880); test: Alphascreen competition-binding assay (peptides vs full-length Gβ1γ2/SNAP25); conditions: read-out: IC50, competition of SNAP25 C-terminal peptide with full-length SNAP25 for binding to Gβ1γ2, 95% CI: 1.27–2.70 μM, n = 21 technical replicates
T1 construct: made in house
T1 sequence (P60880 whole entry): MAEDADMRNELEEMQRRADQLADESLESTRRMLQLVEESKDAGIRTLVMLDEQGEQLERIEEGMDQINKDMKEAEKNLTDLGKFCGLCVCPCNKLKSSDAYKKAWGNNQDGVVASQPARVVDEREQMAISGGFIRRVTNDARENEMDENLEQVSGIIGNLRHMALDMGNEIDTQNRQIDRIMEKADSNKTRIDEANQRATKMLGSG
Description: Proximity of Alphascreen beads due to Gβ1γ2/SNAP25 interactions produces a luminescent signal. […] A value of 100% was assigned to the average of all conditions tested containing only DMSO as a positive control. The data points correspond to the mean ± SD percentage of positive control luminescence (n = 3 technical replicates). Data were fitted with a four-parameter non-linear regression model in GraphPad Prism to obtain IC50 values for each peptide (Table 1).
Alphascreen luminescence measurements were performed as described ([33]). […] An EC80 concentration of 180 nM purified His6-Gβ1γ2 was made in assay buffer. Peptide stocks in DMSO were spotted onto 384-well white OptiPlates (PerkinElmer Life Sciences) at concentration ranges of 1 nM to 100 μM using a Labcyte Echo 555 Omics acoustic liquid handler (Labcyte), with DMSO being back-added to a final concentration of 0.1%. […] Subsequent to incubation while shaking for an additional 5 min, 10 μl of Alphascreen Histidine Detection Kit (nickel chelate) acceptor beads were added to a final concentration of 20 μg/ml in assay buffer. […] After being spun down briefly to settle all fluid at the bottom of the well, plates were incubated for an additional 1 h at 27 °C before being read in the EnSpire. […] IC50 concentrations for each peptide were determined by sigmoidal dose-response curve-fitting with variable slope.

Substance: Gβ1 residues 328 to 337: peptide corresponding to Gβ1 residues 328 to 337, from ref 39 (ATGSWDSFLK; UniProt P62873 328-337, looked up, fragment)
IC50 (SNAP25): ~28 µM

Kd [1]: > 13 µM
Substance: Gβ1γ2: His-tagged soluble Gβ1γ2 (C68S) heterodimer purified from Sf9 cells

Substance: Gγ2 peptide 19: 15-mer Gγ2 array peptide number 19, membrane-coupled (PASENPFREKKFFCA; also: C-terminus coupled to the membrane)
Binding pattern, tSNARE versus ternary SNARE mimetics [2]: bound to tSNARE but not ternary SNARE

IC50 (Gβ1γ2/SNAP25 interaction): 1.84 µM
Substance: TRIDEANQRATKMLGSG
